Reference: patent EP3431468B1, “USE OF ADIPONECTIN RECEPTOR AGONISTS IN TREATING DEPRESSION, ANXIETY AND NEUROINFLAMMATION” (CENTRE NATIONAL DE LA RECHERCHE SCIENTIFIQUE, priority 2017, dated 2019)

Legend:
Format in all cases: in vivo
[1] = Kinetic of AdipoRon in plasma and brain areas by HPLC coupled to MS/MS; conditions: for time of highest level of AdipoRon post ip injection: 1mg/kg ip; for level of AdipoRon: 3-hours post ip injection, 1mg/kg
[2] = test system: corticosterone-treated mice; test: Social interaction test, chronic administration; conditions: chronic 1mg/kg ip daily
Experimental: (§1) Three well-established mouse models of depression-like behavior have been used in the present study namely i- the long-term corticosterone treatment in the drinking water (David, Samuels et al. 2009), ii- the peripheral administration of LPS (O'Connor, Lawson et al. 2009) iii- the ApN^-/- mice (Liu, Guo et al. 2012). For chronic AdipoRon treatment, the experimental protocol was as followed: • i- Five weeks old male mice (five/cage) received corticosterone (35mg/L dissolved in tap water containing 4 g/L CD) or vehicle alone ad libitum for during 7 consecutive weeks (David, Samuels et al. 2009). Corticosterone and vehicle solutions were changed every 3 days to prevent possible degradation. […]
(§2) All behavioral testing were conducted during the light phase (between 09:00 and 14:00 am) in compliance with the Institutional Animal Care and Use Committee of the University of Nice-Sophia Antipolis (permission number 010344.01 from the French "Ministère de l'Enseignement Supérieur et de la Recherche" granted to Dr. Joëlle Chabry). • Forced Swimming test (FST) - Mice were placed an inescapable transparent tank (20cm diameter, 30cm deep) filled with water (23°C ± 0.5) for six minutes as previously described by Porsolt et al. (1977). […] To initiate testing, mice were placed into the light side and activity was recorded for 5 minutes. […]

[3] = test system: corticosterone-treated mice; test: Light & Dark test (L&D), chronic administration; conditions: chronic 1mg/kg ip daily
Experimental: as §1, §2

[4] = test system: wt and depression-like mouse models; test: Forced Swimming test (FST), acute administration; conditions: LPS-treated mice (0.83 mg/kg LPS), 1mg/kg ip
Experimental: as §1, §2

[5] = test system: corticosterone-treated mice; test: Learned Helplessness (LH), chronic administration; conditions: chronic 1mg/kg ip daily
Experimental: as §1, §2

[6] = vehicle-treated mice (no corticosterone)

O=C(COc1ccc(C(=O)c2ccccc2)cc1)NC1CCN(Cc2ccccc2)CC1 [AdipoRon, 2-(4-Benzoylphenoxy)-N-[1-(phenylmethyl)-4-piperidinyl]-acetamide]
time of highest level of AdipoRon post ip injection ([1]; hippocampus): thirty | level of AdipoRon ([1]; hippocampus): barely detectable | time of highest level of AdipoRon post ip injection ([1]; hypothalamus): thirty | level of AdipoRon ([1]; hypothalamus): barely detectable | blood-brain barrier (BBB) crossing ([1]; ip injection, mice): crosses the BBB | time of highest level of AdipoRon post ip injection ([1]; plasma): thirty | level of AdipoRon ([1]; plasma): barely detectable | social interactions ([2]; corticosterone-treated mice): reversed the effect of corticosterone | social interactions [2, 6]: no significant effect | time spent in the aversive light chamber (anxiety behavior) ([3]; corticosterone-treated mice): reversed the anxiety phenotype | time spent in the aversive light chamber (anxiety behavior) [3, 6]: without effect | immobility time in the FST [4]: significantly to reducing this parameter | resignation-like behavior in the LH test (latency, failures to escape) ([5]; corticosterone-treated mice): reversed the effect of corticosterone | resignation-like behavior in the LH test (latency, failures to escape) [5, 6]: no significant effect
